Test results from US8536354B2, “Steroidal ligands and their use in gene switch modulation” (Intrexon Corporation, priority 2008, dated 2013).
Where two headings read alike, the source gives them in different places.

Columns and labels:
[1] = biological target: wild-type Drosophila melanogaster EcR (DmEcR; GAL4-EcR DEF with VP16-RXR-USP chimera) (Drosophila melanogaster, UniProt P34021); experiment: Two-hybrid gene switch assay, luciferase reporter, wild-type DmEcR, mouse NIH3T3 cells; assay type: cell-based
Sequence of wild-type Drosophila melanogaster EcR (DmEcR; GAL4-EcR DEF with VP16-RXR-USP chimera) (P34021 with tags, fused parts or gaps limits assumed): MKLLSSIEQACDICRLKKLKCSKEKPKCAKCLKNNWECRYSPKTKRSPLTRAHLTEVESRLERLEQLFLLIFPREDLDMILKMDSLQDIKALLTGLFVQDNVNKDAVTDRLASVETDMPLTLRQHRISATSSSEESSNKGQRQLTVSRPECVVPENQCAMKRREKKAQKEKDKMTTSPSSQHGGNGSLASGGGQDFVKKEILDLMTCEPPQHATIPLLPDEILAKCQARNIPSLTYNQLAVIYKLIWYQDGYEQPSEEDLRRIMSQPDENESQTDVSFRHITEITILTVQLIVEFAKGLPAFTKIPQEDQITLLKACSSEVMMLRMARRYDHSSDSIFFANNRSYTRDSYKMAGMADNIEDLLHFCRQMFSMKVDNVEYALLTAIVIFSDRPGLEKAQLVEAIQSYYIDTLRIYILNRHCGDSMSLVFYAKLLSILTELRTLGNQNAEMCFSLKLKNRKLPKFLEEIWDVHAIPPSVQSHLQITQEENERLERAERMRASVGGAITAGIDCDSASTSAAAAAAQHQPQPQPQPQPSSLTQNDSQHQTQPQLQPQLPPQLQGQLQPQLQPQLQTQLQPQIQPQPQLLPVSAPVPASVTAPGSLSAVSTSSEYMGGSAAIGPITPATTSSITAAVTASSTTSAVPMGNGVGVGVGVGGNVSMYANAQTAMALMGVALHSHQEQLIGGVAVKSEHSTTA

[2] = biological target: T1, BaEcR (GAL4-EcR DEF with VP16-RXR-USP chimera) (Bemisia tabaci, UniProt A0A6M3RDR8); experiment: Two-hybrid gene switch assay, luciferase reporter, BaEcR, mouse NIH3T3 cells
T1 sequence (A0A6M3RDR8 115-530): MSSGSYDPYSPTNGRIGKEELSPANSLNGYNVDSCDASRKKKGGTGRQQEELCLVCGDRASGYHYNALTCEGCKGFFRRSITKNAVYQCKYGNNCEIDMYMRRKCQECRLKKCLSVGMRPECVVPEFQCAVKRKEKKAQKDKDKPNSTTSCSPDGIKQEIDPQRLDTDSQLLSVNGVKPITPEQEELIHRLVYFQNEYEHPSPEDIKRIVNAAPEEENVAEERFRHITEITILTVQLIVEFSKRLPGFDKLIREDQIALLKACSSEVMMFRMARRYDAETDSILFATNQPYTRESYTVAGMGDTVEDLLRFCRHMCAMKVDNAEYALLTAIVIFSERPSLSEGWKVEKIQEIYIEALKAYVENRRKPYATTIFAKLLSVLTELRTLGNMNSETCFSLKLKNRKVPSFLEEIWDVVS
T1 sequence (P28702 1-533 partner): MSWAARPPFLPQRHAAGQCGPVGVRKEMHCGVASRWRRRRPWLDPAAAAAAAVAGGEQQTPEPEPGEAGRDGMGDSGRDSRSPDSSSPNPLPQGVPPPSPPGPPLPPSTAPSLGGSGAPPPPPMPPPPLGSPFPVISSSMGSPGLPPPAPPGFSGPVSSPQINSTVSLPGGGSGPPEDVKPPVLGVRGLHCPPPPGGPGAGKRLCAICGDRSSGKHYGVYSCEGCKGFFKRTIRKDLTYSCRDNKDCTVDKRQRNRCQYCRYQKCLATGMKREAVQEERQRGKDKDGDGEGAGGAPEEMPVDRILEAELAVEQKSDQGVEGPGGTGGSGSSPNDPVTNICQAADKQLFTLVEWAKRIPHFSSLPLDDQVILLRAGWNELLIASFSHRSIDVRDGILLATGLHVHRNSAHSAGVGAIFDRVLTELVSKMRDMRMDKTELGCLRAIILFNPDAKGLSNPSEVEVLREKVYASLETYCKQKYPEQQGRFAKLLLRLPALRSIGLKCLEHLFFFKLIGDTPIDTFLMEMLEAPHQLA

[3] = biological target: wild-type Aedes aegypti EcR (AaEcR; GAL4-EcR DEF with VP16-RXR-USP chimera) (Aedes aegypti, UniProt P49880); experiment: Two-hybrid gene switch assay, luciferase reporter, wild-type AaEcR, mouse NIH3T3 cells; assay type: cell-based
Sequence of wild-type Aedes aegypti EcR (AaEcR; GAL4-EcR DEF with VP16-RXR-USP chimera) (P49880 with tags, fused parts or gaps limits assumed, change not shown): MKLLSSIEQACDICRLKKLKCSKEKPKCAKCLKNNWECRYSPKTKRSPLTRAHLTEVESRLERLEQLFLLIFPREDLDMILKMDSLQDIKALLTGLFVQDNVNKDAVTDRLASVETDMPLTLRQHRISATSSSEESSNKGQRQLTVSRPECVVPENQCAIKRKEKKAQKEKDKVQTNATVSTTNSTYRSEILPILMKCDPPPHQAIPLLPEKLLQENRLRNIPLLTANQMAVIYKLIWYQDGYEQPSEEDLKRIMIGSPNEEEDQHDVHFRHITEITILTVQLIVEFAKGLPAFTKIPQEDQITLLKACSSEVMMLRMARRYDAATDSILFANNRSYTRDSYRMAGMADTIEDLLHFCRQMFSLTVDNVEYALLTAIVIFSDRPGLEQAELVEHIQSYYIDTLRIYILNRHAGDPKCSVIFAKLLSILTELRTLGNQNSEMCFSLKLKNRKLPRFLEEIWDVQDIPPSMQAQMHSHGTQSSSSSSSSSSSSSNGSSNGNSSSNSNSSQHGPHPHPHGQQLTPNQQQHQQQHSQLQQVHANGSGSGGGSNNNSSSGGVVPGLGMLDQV

[4] = biological target: T2, AmaEcR (GAL4-EcR DEF with VP16-RXR-USP chimera) (Amblyomma americanum, UniProt O44338); experiment: Two-hybrid gene switch assay, luciferase reporter, AmaEcR, mouse NIH3T3 cells
T2 sequence (O44338 255-570): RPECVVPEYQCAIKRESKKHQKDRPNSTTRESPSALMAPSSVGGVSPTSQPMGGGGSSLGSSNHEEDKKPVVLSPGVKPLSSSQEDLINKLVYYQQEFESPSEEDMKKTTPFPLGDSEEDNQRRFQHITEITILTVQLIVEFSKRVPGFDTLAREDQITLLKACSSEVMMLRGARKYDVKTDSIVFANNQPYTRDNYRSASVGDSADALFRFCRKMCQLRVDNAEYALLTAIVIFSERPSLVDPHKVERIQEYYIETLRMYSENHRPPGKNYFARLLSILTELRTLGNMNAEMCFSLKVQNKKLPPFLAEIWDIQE
T2 sequence (P28702 1-533 partner): T1 sequence (P28702 1-533 partner)

[5] = biological target: T3, wild-type CfEcR (GAL4-CfEcR-DEF with VP16-RXR-USP chimera) (Choristoneura fumiferana, UniProt O77255); experiment: Two-hybrid gene switch assay, luciferase reporter, wild-type CfEcR, mouse NIH3T3 cells
T3 sequence (O77255 219-541): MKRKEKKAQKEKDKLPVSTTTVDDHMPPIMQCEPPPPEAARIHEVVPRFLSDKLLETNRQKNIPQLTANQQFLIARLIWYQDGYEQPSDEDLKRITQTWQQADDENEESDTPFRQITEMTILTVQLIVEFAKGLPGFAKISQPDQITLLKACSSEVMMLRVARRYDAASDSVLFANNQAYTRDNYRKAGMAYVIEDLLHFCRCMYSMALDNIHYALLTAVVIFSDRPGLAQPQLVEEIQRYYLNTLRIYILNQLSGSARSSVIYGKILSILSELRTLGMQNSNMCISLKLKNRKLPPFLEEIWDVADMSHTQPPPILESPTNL
T3 sequence (P28702 1-533 partner): T1 sequence (P28702 1-533 partner)

[6] = biological target: T4, TmEcR (GAL4-EcR DEF with VP16-RXR partner) (Tenebrio molitor, UniProt O02035); experiment: Two-hybrid gene switch assay, luciferase reporter, TmEcR, mouse NIH3T3 cells
T4 sequence (O02035 194-491): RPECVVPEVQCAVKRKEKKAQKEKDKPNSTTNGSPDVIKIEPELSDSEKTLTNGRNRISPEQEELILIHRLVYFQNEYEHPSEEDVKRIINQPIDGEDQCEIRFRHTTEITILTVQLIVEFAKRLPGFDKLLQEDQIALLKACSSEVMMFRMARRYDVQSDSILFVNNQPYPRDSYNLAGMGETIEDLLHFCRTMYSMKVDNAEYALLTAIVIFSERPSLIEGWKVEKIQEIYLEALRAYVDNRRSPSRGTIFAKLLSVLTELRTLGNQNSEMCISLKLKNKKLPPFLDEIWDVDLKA
T4 sequence (P28704 1-520 partner): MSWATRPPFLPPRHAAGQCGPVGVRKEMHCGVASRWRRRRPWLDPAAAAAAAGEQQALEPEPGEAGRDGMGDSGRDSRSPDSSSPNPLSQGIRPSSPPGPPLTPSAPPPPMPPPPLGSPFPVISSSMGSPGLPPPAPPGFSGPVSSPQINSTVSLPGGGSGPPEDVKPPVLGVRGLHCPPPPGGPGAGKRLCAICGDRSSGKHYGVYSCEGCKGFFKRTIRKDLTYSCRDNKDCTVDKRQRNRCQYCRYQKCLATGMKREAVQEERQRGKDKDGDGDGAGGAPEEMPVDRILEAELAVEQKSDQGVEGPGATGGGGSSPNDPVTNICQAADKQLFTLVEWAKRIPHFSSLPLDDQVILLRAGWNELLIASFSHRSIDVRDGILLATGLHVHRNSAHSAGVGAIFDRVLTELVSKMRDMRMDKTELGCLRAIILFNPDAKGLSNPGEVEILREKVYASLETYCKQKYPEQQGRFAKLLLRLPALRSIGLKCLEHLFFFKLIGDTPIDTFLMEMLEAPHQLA

[7] = EC50, FIG. 14A/14B, GAL4-EcR(DEF) with VP16-RXR-USP chimera
[8] = FIG. 14A/14B, GAL4-EcR(DEF) with VP16-RXR-USP chimera, read-out: EC50
[9] = EC50, FIG. 14A/14B, GAL4-EcR(DEF)
[10] = EC50, FIG. 16, GAL4-EcR (DEF) / VP16-RXR-USP chimera

Compound | EC50 [1, 7] [µM] | EC50 [2, 7] [µM] | EC50 [3, 8] [µM] | EC50 [4, 7] [µM] | EC50 [5] [µM] | EC50 [6, 9] [µM] | EC50 [1, 10] [µM] | EC50 [2, 10] [µM] | EC50 [3, 7] [µM] | EC50 [3, 10] [µM] | EC50 [4, 10] [µM] | EC50 ([5]; FIG. 15, CfEcR, GAL4-EcR (DEF) / VP16-RXR-USP chimera) [µM] | EC50 ([6]; EC50, FIG. 16, GAL4-EcR (DEF)) [µM]
C[C@H](CO)CC[C@@H](O)[C@](C)(O)[C@H]1CC[C@@]2(O)C3=CC(=O)[C@@H]4C[C@@H](O)[C@@H](O)C[C@]4(C)[C@H]3CC[C@]12C [(25S)-inokosterone] | ~20 | ~10 | ~4 | ~3.3 | > 33 | ~10 | – | – | – | – | – | – | –
CC(=O)O[C@H](CCC(C)(C)O)[C@](C)(O)[C@H]1CC[C@@]2(O)C3=CC(=O)[C@@H]4C[C@@H](O)[C@@H](O)C[C@]4(C)[C@H]3CC[C@]12C [Compound 20-hydroxyecdysone-22-acetate] | > 33 | ~2 | ~2 | ~2 | > 33 | ~2 | – | – | – | – | – | – | –
C[C@@H](CO)CC[C@@H](O)[C@](C)(O)[C@H]1CC[C@@]2(O)C3=CC(=O)[C@@H]4C[C@@H](O)[C@@H](O)C[C@]4(C)[C@H]3CC[C@]12C [(25R)-inokosterone] | 9.46 | ~10 | ~2.5 | ~3.3 | > 33 | ~20 | – | – | – | – | – | – | –
CC(C)(O)CC[C@@H](O)[C@](C)(O)[C@H]1CC[C@@]2(O)C3=CC(=O)[C@@H]4C[C@@H](O)[C@@H](O)[C@@H](O)[C@]4(C)[C@H]3CC[C@]12C [integristerone A] | > 33 | ~20 | ~10 | ~10 | > 33 | ~8 | – | – | – | – | – | – | –
CC1(C)OC(=O)C=C1CC(O)C(C)(O)C1CCC2(O)C3=CC(=O)C4CC(O)C(O)CC4(C)C3CCC12C (stereo not drawn) [carthamosterone] | > 33 | > 33 | ~15 | ~20 | > 33 | > 33 | – | – | – | – | – | – | –
C[C@H]([C@H](O)CCC(C)(C)O)[C@H]1CC[C@@]2(O)C3=CC(=O)[C@@H]4C[C@@H](O)[C@@H](O)C[C@]4(C)[C@H]3CC[C@]12C [ecdysone] | > 33 | > 33 | – | ~7 | > 33 | > 33 | > 33 | > 33 | ~15 | 3.43 | > 33 | > 33 | > 33
CCC(CC(O)C(C)(O)C1CCC2(O)C3=CC(=O)C4CC(O)C(O)CC4(C)C3CCC12C)C(C)(C)O (stereo not drawn) [makisterone C] | ~5 | ~3.3 | 1.02 | ~2 | > 33 | ~4 | – | – | – | – | – | – | –
